Laboratory results: article PMC4508061, “Selectivity Profiling and Biological Activity of Novel β-Carbolines as Potent and Selective DYRK1 Kinase Inhibitors” (PLoS ONE, 2015)

Experiments:
Assay in all cases: ProQinase radiometric kinase panel
Conditions in all cases: mean of 2 exp.
[1] = target: EPHB2 (Homo sapiens, UniProt P29323)
[2] = target: PKC-epsilon (Homo sapiens, UniProt Q02156)
[3] = target: PKC-zeta (Homo sapiens, UniProt Q05513)
[4] = target: MEKK2 (Homo sapiens, UniProt Q9Y2U5)
[5] = target: ERK7 (Homo sapiens, UniProt Q8TD08)
Chain of ERK7 (Q8TD08 whole entry): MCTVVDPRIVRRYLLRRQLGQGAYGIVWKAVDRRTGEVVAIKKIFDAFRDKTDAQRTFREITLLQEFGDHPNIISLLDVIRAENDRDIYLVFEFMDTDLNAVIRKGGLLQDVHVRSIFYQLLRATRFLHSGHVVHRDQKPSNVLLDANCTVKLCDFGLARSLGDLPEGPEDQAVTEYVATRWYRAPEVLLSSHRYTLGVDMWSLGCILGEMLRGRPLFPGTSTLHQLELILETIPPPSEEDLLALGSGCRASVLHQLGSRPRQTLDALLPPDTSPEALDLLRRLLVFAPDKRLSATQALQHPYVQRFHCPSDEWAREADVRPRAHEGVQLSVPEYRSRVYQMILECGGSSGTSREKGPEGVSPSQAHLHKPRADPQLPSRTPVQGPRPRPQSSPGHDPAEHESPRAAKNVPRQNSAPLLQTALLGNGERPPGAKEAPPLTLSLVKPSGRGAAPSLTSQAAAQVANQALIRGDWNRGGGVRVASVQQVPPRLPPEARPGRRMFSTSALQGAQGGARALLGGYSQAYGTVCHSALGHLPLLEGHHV

[6] = target: TRK-A (Homo sapiens, UniProt P04629)
[7] = target: TAOK2 (Homo sapiens, UniProt Q9UL54)
[8] = target: WNK3 (Homo sapiens, UniProt Q9BYP7)
Chain of WNK3 (Q9BYP7 whole entry): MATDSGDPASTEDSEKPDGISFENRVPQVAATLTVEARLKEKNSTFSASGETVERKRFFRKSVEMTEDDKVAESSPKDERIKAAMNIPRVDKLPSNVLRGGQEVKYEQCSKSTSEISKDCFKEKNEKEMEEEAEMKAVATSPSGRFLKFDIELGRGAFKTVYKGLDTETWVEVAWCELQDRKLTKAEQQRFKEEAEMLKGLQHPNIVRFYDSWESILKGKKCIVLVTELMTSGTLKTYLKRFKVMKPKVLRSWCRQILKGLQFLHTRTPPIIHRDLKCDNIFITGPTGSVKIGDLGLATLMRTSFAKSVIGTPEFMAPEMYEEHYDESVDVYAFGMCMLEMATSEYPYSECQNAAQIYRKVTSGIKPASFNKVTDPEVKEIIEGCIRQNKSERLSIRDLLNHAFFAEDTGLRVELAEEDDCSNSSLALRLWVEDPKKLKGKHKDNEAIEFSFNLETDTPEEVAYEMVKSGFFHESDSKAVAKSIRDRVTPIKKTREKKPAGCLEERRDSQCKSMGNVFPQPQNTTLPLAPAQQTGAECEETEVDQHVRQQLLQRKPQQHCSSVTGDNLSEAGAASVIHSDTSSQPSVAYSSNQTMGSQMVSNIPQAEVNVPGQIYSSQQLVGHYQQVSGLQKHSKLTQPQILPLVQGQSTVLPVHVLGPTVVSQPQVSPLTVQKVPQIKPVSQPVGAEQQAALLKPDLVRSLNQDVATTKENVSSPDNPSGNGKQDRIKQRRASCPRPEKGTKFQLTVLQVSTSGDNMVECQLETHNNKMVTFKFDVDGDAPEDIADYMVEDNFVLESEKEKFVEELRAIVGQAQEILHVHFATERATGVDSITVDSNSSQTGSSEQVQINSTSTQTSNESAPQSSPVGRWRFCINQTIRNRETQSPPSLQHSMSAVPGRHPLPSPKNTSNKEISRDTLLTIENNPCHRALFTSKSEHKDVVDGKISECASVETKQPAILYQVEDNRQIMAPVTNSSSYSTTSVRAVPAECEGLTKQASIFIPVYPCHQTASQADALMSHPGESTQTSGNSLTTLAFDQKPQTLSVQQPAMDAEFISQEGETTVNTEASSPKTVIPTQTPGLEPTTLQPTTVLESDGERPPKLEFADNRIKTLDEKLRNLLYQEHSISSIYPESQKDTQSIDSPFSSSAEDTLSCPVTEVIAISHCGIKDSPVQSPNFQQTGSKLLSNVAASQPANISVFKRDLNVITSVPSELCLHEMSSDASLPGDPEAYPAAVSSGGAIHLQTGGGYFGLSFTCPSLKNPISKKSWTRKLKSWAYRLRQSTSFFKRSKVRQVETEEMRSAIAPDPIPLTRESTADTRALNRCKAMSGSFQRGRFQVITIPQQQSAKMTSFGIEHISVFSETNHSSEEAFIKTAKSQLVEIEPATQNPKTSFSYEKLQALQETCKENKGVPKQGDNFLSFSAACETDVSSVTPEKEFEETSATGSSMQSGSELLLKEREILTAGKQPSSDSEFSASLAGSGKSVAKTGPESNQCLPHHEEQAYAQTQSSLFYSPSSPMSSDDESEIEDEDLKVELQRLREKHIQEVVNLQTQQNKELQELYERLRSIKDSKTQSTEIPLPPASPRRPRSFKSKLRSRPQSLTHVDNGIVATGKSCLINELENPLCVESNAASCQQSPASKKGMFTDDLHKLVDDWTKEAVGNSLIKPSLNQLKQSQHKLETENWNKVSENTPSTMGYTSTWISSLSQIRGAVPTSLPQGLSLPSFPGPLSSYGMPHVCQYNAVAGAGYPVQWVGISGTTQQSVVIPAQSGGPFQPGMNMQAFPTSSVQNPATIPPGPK

[9] = target: HRI (Homo sapiens, UniProt Q9BQI3)
[10] = target: PKC-delta (Homo sapiens, UniProt Q05655)
[11] = target: NEK9 (Homo sapiens, UniProt Q8TD19)
[12] = target: GSK3-alpha (Homo sapiens, UniProt P49840)
[13] = target: JNK2 (Homo sapiens, UniProt P45984)
Chain of JNK2 (P45984 whole entry): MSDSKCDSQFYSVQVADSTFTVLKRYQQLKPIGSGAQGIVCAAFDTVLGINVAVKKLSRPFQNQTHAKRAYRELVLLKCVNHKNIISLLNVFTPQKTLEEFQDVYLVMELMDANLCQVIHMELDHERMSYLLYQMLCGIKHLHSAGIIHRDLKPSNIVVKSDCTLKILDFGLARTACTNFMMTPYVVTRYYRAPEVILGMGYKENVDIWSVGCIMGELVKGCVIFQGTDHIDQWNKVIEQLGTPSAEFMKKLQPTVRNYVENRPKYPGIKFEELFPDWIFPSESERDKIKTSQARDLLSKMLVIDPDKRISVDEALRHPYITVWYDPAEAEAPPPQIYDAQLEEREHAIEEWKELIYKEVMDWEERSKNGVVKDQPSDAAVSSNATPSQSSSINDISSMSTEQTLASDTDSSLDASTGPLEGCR
Description: Gini coefficients were calculated and the Lorenz curve (Fig 3B) was plotted by applying the Microsoft Excel spreadsheet provided by Graczyk [44].
radiometric protein kinase assays.

[14] = target: MAP3K7 (Homo sapiens, UniProt O43318)
[15] = target: PHKG2 (Homo sapiens, UniProt P15735)
[16] = target: STK23 (Homo sapiens, UniProt Q9UPE1)
[17] = target: MST1 (Homo sapiens, UniProt Q13043)
[18] = target: ROS (Homo sapiens, UniProt P08922)
[19] = target: CK2-alpha1 (Homo sapiens, UniProt P68400)
[20] = target: MET (Homo sapiens, UniProt P08581)
[21] = target: FER (Homo sapiens, UniProt P16591)
[22] = target: EIF2AK3 (Homo sapiens, UniProt Q9NZJ5)
[23] = target: BMX (Homo sapiens, UniProt P51813)
[24] = target: GRK2 (Homo sapiens, UniProt P25098)
Chain of GRK2 (P25098 whole entry): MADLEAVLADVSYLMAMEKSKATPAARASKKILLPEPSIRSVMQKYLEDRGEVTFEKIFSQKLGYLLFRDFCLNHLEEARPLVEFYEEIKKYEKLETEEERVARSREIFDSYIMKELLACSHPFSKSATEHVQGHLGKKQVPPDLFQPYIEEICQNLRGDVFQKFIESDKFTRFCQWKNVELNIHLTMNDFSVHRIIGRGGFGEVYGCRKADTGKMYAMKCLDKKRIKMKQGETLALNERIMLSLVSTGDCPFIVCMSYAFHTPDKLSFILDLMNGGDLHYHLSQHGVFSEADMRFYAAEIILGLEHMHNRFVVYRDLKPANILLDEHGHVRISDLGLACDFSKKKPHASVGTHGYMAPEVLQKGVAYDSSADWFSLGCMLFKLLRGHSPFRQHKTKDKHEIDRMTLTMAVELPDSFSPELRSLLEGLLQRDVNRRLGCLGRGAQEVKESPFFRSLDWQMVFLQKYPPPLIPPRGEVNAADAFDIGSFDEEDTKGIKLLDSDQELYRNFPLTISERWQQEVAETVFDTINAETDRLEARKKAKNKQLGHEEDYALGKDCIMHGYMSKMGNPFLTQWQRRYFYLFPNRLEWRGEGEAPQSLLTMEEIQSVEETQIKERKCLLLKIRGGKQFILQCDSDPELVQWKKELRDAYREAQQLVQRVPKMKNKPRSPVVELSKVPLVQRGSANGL

[25] = target: CAMK2B (Homo sapiens, UniProt Q13554)
[26] = target: EPHA7 (Homo sapiens, UniProt Q15375)
[27] = target: CDK2/CycA2 (Homo sapiens, UniProt P24941)
[28] = target: EPHB4 (Homo sapiens, UniProt P54760)
[29] = target: VEGF-R2 (Homo sapiens, UniProt P35968)
[30] = target: MAP3K9 (Homo sapiens, UniProt P80192)
[31] = target: PIM2 (Homo sapiens, UniProt Q9P1W9)
Chain of PIM2 (Q9P1W9 whole entry): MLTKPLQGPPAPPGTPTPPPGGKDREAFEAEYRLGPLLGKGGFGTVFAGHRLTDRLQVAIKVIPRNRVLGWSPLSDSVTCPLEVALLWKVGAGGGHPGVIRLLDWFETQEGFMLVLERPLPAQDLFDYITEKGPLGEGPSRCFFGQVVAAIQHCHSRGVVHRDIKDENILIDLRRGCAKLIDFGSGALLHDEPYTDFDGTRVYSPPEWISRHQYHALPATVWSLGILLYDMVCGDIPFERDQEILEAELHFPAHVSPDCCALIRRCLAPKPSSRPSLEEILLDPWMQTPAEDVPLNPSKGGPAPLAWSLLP

[32] = target: PKC-alpha (Homo sapiens, UniProt P17252)
[33] = target: CDK16/CycY (Homo sapiens, UniProt Q00536)
[34] = target: RPS6KA5 (Homo sapiens, UniProt O75582)
[35] = target: EIF2AK2 (Homo sapiens, UniProt P19525)
[36] = target: ACV-R1B (Homo sapiens, UniProt P36896)
Chain of ACV-R1B (P36896 24-505): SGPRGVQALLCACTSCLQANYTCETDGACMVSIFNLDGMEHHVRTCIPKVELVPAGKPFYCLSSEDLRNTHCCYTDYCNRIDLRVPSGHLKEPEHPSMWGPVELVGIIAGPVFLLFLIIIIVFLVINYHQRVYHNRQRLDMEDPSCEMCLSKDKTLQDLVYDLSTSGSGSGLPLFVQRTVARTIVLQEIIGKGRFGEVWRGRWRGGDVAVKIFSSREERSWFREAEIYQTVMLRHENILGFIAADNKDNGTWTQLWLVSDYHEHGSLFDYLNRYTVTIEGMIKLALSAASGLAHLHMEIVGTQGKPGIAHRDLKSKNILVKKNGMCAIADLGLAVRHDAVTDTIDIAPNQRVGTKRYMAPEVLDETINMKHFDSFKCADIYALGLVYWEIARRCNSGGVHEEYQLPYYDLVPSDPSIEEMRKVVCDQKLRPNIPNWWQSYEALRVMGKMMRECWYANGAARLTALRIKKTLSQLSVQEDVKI

Chain of MEKK2 (Q9Y2U5 whole entry): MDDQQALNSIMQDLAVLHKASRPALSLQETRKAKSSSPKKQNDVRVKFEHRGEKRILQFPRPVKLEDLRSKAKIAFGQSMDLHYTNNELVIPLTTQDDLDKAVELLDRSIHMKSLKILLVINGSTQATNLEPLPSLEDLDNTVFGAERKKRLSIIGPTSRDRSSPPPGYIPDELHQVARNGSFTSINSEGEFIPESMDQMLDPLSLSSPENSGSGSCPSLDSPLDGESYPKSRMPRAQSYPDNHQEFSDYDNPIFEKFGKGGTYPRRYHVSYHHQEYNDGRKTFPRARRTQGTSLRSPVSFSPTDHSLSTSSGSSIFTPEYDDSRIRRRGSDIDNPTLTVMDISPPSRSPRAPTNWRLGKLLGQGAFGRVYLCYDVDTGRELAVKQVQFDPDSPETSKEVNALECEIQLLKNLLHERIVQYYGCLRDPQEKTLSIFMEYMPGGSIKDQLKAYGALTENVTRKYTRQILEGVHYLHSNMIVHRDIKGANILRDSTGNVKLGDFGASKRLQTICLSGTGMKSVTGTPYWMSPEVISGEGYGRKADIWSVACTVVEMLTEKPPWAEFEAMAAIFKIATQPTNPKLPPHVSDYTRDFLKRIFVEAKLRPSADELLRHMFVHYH

In the case of COc1ccc2c3ccnc(Cl)c3n(CC#N)c2c1 [AnnH75], the “residual activity at 1 µM, Mean” value [1] is reported as 99 % of control, the “residual activity at 1 µM, Mean” value [2] is reported as 39 % of control and the “residual activity at 1 µM, Mean” value [3] is reported as 97 % of control. For the same molecule, the “residual activity at 1 µM, Mean” value [4] was 105 % of control, the “residual activity at 1 µM, Mean” value [5] was 59 % of control and the “residual activity at 1 µM, Mean” value [6] was 84 % of control. The “residual activity at 1 µM, Mean” value [7] was 98 % of control, the “residual activity at 1 µM, Mean” value [8] was 94 % of control and the “residual activity at 1 µM, Mean” value [9] was 101 % of control. The “residual activity at 1 µM, Mean” value [10] was 105 % of control, the “residual activity at 1 µM, Mean” value [11] was 95 % of control and the “residual activity at 1 µM, Mean” value [12] was 81 % of control. The “residual activity at 1 µM, Mean” value [13] was 100 % of control, the “residual activity at 1 µM, Mean” value [14] was 91 % of control and the “residual activity at 1 µM, Mean” value [15] was 94 % of control. For the same molecule, the “residual activity at 1 µM, Mean” value [16] was 93 % of control, the “residual activity at 1 µM, Mean” value [17] was 91 % of control and the “residual activity at 1 µM, Mean” value [18] was 94 % of control. The “residual activity at 1 µM, Mean” value [19] was 96 % of control, the “residual activity at 1 µM, Mean” value [20] was 100 % of control and the “residual activity at 1 µM, Mean” value [21] was 93 % of control. For the same molecule, the “residual activity at 1 µM, Mean” value [22] was 99 % of control, the “residual activity at 1 µM, Mean” value [23] was 79 % of control and the “residual activity at 1 µM, Mean” value [24] was 92 % of control. The “residual activity at 1 µM, Mean” value [25] was 92 % of control, the “residual activity at 1 µM, Mean” value [26] was 107 % of control and the “residual activity at 1 µM, Mean” value [27] was 88 % of control. The “residual activity at 1 µM, Mean” value [28] was 95 % of control, the “residual activity at 1 µM, Mean” value [29] was 98 % of control and the “residual activity at 1 µM, Mean” value [30] was 100 % of control. For the same molecule, the “residual activity at 1 µM, Mean” value [31] was 107 % of control, the “residual activity at 1 µM, Mean” value [32] was 111 % of control and the “residual activity at 1 µM, Mean” value [33] was 90 % of control. For the same molecule, the “residual activity at 1 µM, Mean” value [34] was 96 % of control, the “residual activity at 1 µM, Mean” value [35] was 95 % of control and the “residual activity at 1 µM, Mean” value [36] was 97 % of control.
